According to patent US8895753B2, “S1P receptor modulating agent” (Meiji Seika Pharma Co., Ltd., priority 2011, dated 2014):
“And” between values parts separate entries of the source, which are not always exact repeats. Equal entries are not always repeated.

Tests used:
[1] = biological target: T1, Human S1P1 receptor (Homo sapiens, UniProt P21453); assay: Agonist activity at an S1P1 receptor (reporter assay, EDG1-bla/U2OS cells); assay type: cell-based; parameters: host or cells: U2OS (EDG1-bla/U2OS); conditions: S1P maximum response = 100%
T1 sequence (P21453 whole entry): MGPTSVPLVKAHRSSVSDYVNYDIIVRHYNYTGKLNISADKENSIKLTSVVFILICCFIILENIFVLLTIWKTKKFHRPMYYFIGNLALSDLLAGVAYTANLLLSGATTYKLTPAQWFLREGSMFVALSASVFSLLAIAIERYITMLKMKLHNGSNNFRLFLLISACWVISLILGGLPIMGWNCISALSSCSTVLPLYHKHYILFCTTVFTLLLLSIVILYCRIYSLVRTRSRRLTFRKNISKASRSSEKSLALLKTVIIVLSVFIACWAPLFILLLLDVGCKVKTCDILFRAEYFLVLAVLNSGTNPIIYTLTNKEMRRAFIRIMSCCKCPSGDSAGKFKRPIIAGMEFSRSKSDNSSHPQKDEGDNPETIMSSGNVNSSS
Method: Human S1P1 receptor gene recombinant EDG1-bla/U2OS cells (Life Technologies Japan Ltd.) were plated in a 96-well half-sized clear bottom black plate at a density of 10000 cells/32 μL/well, and then the plate was incubated at 37° C. in a 5% CO2 incubator for 48 hours. A culture medium containing each test compound prepared as a 5× concentrate was added at 8 μL/well, and the plate was incubated at 37° C. in a 5% CO2 incubator for 5 hours. The substrate (LiveBLAzer™-FRET B/G substrate (CCF4-AM), Life Technologies Japan Ltd.) prepared as a 6× concentrate was added at 8 μL into each well, and the plate was incubated at room temperature for 2 hours in the dark. The fluorescence intensity of each well was detected using a bottom-reading fluorescence microplate reader (EnVision: ParkinElmer) at one excitation wavelength and 2 wavelengths for fluorescence emission (Ex409 nm, Em460 nm, Em530 nm). The intensity ratio of fluorescence at 460 nm/530 nm was calculated for each well. The maximum response ratio confirmed from the dose response of SIP was expressed as 100%. The concentration of a test compound required to stimulate 50% of its maximal activation was computed as EC50 (nM).

[2] = biological target: T2, Human S1P4 receptor (Homo sapiens, UniProt O95977); assay: Agonist activity at an S1P4 receptor (calcium influx); assay type: cell-based; conditions: at 1000 nM; read-out: activity at S1P4 receptor (elevation of intracellular calcium)
T2 sequence (O95977 1-384): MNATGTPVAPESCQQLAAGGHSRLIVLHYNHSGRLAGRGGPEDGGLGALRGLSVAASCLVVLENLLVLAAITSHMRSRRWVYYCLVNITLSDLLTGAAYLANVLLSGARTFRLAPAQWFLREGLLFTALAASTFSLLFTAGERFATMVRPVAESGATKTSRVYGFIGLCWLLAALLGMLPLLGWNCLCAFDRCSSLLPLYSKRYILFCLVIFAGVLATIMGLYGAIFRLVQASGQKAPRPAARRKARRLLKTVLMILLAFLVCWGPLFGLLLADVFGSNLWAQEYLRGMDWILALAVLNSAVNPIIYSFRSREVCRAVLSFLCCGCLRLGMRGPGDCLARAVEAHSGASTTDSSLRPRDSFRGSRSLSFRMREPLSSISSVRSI
Method: By using Human S1P4 receptor expressing cells (Multispan Inc. CG1052-1), the elevation of intracellular calcium concentration via agonist activity by the addition of 1000 nM was measured by Fret method (fluorescence resonance energy transfer).

[3] = biological target: T1, Human S1P1 receptor; assay: Agonist activity at an S1P1 receptor ([35S]-GTPγS exchange reaction, membrane fractions); assay type: biochemical; conditions: read-out: EC50, agonist activity at S1P1 receptor (GTP exchange reaction)
Method: (§1) By using membrane fractions prepared from a human S1P1 receptor expressing cells (Multispan Ltd.), the agonist activity of each test compound was measured by [^35S]-GTPγS exchange reaction in accordance with a standard procedure (Methods in Molecular Biology, Vol. 552, p 143-151 (2009)), and EC50 (nM) of each test compound was computed.

[4] = biological target: Human S1P3 receptor (Homo sapiens, UniProt Q99500); assay: Agonist activity at an S1P3 receptor ([35S]-GTPγS exchange reaction at 1000 nM); assay type: biochemical; conditions: read-out: percent of the maximal agonist activity at S1P3 receptor
Human S1P3 receptor, sequence (Q99500 whole entry): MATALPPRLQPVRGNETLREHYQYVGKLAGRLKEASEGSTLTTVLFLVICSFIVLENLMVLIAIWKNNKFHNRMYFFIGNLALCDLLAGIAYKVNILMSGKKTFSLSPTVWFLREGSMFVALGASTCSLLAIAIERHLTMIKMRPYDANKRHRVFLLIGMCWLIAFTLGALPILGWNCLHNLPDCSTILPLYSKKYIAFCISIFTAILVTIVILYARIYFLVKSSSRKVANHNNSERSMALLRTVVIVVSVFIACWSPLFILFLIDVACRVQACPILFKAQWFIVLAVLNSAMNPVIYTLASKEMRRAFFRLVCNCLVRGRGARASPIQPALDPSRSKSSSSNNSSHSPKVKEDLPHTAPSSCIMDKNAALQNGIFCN
Method: as §1
By using membrane fractions prepared from Human S1P3 receptor expressing cells (Multispan Inc.), the agonist activity of the compound in the present invention was measured by a [^35S]-GTPγS exchange reaction at 1000 nM by the similar method of the Experimental Example 2.

Row | EC50 [1] | activation at 1 µM [2] [%] | EC50 [3] [nM] | Emax at 1 µM [4] [%] | Compound
1 | ≤ 100 nM and 87.1 nM | – | – | – | CC(C)Oc1ccc(-c2cnc(-c3ccc(CN4CC(c5nn[nH]n5)C4)cc3)s2)cc1 [Example 4, 2-(4-((3-(2H-tetrazol-5-yl)azetidin-1-yl)methyl)phenyl)-5-(4-isopropoxyphenyl)thiazole]
2 | ≤ 1 nM and 0.076 nM | < 20 | ≤ 10 | 20 to 50 | CC(C)Oc1ccc(-c2cnc(-c3ccc(CN4CC(C(=O)O)C4)cc3F)s2)cc1Cl [Example 11, 1-(4-(5-(3-chloro-4-isopropoxyphenyl)thiazol-2-yl)-3-fluorobenzyl)azetidine-3-carboxylic acid]
3 | ≤ 10 nM | < 20 | ≤ 50 | 20 to 50 | CC(C)Oc1ccc(-c2cnc(-c3ccc(CN4CC(C(=O)O)C4)cc3Cl)s2)cc1 [Example 12, 1-(3-chloro-4-(5-(4-isopropoxyphenyl)thiazol-2-yl)benzyl)azetidine-3-carboxylic acid]
4 | ≤ 100 nM | – | – | – | CCCCc1cc(CN2CC(C(=O)O)C2)ccc1-c1ncc(-c2ccc(OC(C)C)cc2)s1 [Example 13, 1-(3-butyl-4-(5-(4-isopropoxyphenyl)thiazol-2-yl)benzyl)azetidine-3-carboxylic acid]
5 | ≤ 10 nM | < 20 | – | < 20 | CCc1cc(CN2CC(C(=O)O)C2)ccc1-c1ncc(-c2ccc(OC(C)C)cc2)s1 [Example 15, 1-(3-ethyl-4-(5-(4-isopropoxyphenyl)thiazol-2-yl)benzyl)azetidine-3-carboxylic acid]
6 | ≤ 500 nM | – | – | – | COc1cc(CN2CC(C(=O)O)C2)ccc1-c1ncc(-c2ccc(OC(C)C)cc2)s1 [Example 18, 1-(4-(5-(4-isopropoxyphenyl)thiazol-2-yl)-3-methoxybenzyl)azetidine-3-carboxylic acid]
7 | ≤ 10 nM | < 20 | ≤ 10 | < 20 | CC(C)Oc1ccc(-c2cnc(-c3ccc(CN4CC(C(=O)O)C4)c(F)c3)s2)cc1 [Example 22, 1-(2-fluoro-4-(5-(4-isopropoxyphenyl)thiazol-2-yl)benzyl)azetidine-3-carboxylic acid]
8 | ≤ 100 nM | – | – | – | CC(C)Oc1ccc(-c2cnc(-c3ccc(CN4CC(C(=O)O)C4)c(C4CC4)c3)s2)cc1 [Example 24, 1-(2-cyclopropyl-4-(5-(4-isopropoxyphenyl)thiazol-2-yl)benzyl)azetidine-3-carboxylic acid]
9 | ≤ 10 nM | – | – | – | Cc1cc(-c2ncc(-c3ccc(OC(C)C)cc3)s2)ccc1CN1CC(C(=O)O)C1 [Example 25, 1-(4-(5-(4-isopropoxyphenyl)thiazol-2-yl)-2-methylbenzyl)azetidine-3-carboxylic acid]
10 | ≤ 100 nM | – | – | – | CCCCCc1ccc(-c2cnc(-c3ccc(CN4CC(C(=O)O)C4)cc3)s2)cc1 [Example 49, 1-(4-(5-(4-pentylphenyl)thiazol-2-yl)benzyl)azetidine-3-carboxylic acid]

Further lines, the compound ahead of its results:

Row | Compound | EC50 [1] | activation at 1 µM [2] [%] | EC50 [3] [nM] | Emax at 1 µM [4] [%]
11 | CC(C)Oc1ccc(-c2cnc(-c3ccc(CN4CCC(C(=O)O)CC4)cc3)s2)cc1 [Example 5, 1-(4-(5-(4-isopropoxyphenyl)thiazol-2-yl)benzyl)piperidine-4-carboxylic acid] | ≤ 500 nM | – | – | –
12 | CC(C)Oc1cccc(-c2cnc(-c3ccc(CN4CC(C(=O)O)C4)cc3)s2)c1 [Example 7, 1-(4-(5-(3-isopropoxyphenyl)thiazol-2-yl)benzyl)azetidine-3-carboxylic acid] | ≤ 100 nM and 72.6 nM | – | – | –
13 | CC(C)Oc1ccc(-c2cnc(-c3ccc(C(C)N4CC(C(=O)O)C4)cc3)s2)cc1 (stereo not shown) [Example 8, 1-(1-(4-(5-(4-isopropoxyphenyl)thiazol-2-yl)phenyl)ethyl)azetidine-3-carboxylic acid] | ≤ 10 nM and 6.58 nM | < 20 | ≤ 100 | –
14 | CC(C)Oc1ccc(-c2cnc(-c3ccc(CN4CC(C(=O)O)C4)cc3C3CC3)s2)cc1 [Example 14, 1-(3-cyclopropyl-4-(5-(4-isopropoxyphenyl)thiazol-2-yl)benzyl)azetidine-3-carboxylic acid] | ≤ 10 nM | – | – | –
15 | O=C(O)C1CN(Cc2ccc(-c3ncc(-c4ccc(OC5CC5)cc4)s3)cc2)C1 [Example 16, 1-(4-(5-(4-cyclopropoxyphenyl)thiazol-2-yl)benzyl)azetidine-3-carboxylic acid] | ≤ 100 nM | – | – | –
16 | CC(C)Oc1ccc(-c2cnc(-c3ccc(CN4CC(C(=O)O)C4)cc3F)s2)cc1 [Example 17, 1-(3-fluoro-4-(5-(4-isopropoxyphenyl)thiazol-2-yl)benzyl)azetidine-3-carboxylic acid] | ≤ 10 nM | < 20 | ≤ 50 | –
17 | CCc1cc(-c2ncc(-c3ccc(OC(C)C)cc3)s2)ccc1CN1CC(C(=O)O)C1 [Example 20, 1-(2-ethyl-4-(5-(4-isopropoxyphenyl)thiazol-2-yl)benzyl)azetidine-3-carboxylic acid] | ≤ 100 nM | – | – | –
18 | Cc1cc(CN2CC(C(=O)O)C2)ccc1-c1ncc(-c2ccc(OC(C)C)cc2)s1 [Example 21, 1-(4-(5-(4-isopropoxyphenyl)thiazol-2-yl)-3-methylbenzyl)azetidine-3-carboxylic acid] | ≤ 10 nM | < 20 | ≤ 50 | 20 to 50
19 | CC(C)Oc1ccc(-c2cnc(-c3ccc(CN4CC(C(=O)O)C4)c(Cl)c3)s2)cc1 [Example 23, 1-(2-chloro-4-(5-(4-isopropoxyphenyl)thiazol-2-yl)benzyl)azetidine-3-carboxylic acid] | ≤ 10 nM | < 20 | ≤ 50 | < 20
20 | COc1cc(-c2ncc(-c3ccc(OC(C)C)cc3)s2)ccc1CN1CC(C(=O)O)C1 [Example 26, 1-(4-(5-(4-isopropoxyphenyl)thiazol-2-yl)-2-methoxybenzyl)azetidine-3-carboxylic acid] | ≤ 100 nM | – | – | –
21 | CC(C)Oc1ccc(-c2cnc(-c3ccc(CN4CC(C(=O)O)C4)c(C(F)(F)F)c3)s2)cc1 [Example 27, 1-(4-(5-(4-isopropoxyphenyl)thiazol-2-yl)-2-(trifluoromethyl)benzyl)azetidine-3-carboxylic acid] | ≤ 100 nM | – | – | –
22 | CC(C)(C)c1ccc(-c2cnc(-c3ccc(CN4CC(C(=O)O)C4)cc3)s2)cc1 [Example 33, 1-(4-(5-(4-tert-butylphenyl)thiazol-2-yl)benzyl)azetidine-3-carboxylic acid] | ≤ 100 nM | – | – | –
23 | CCCCCCc1ccc(-c2cnc(-c3ccc(CN4CC(C(=O)O)C4)cc3)s2)cc1 [Example 35, 1-(4-(5-(4-hexylphenyl)thiazol-2-yl)benzyl)azetidine-3-carboxylic acid] | ≤ 500 nM | – | – | –
24 | CCCCOc1ccc(-c2cnc(-c3ccc(CN4CC(C(=O)O)C4)cc3)s2)cc1 [Example 39, 1-(4-(5-(4-butoxyphenyl)thiazol-2-yl)benzyl)azetidine-3-carboxylic acid] | ≤ 100 nM | – | – | –
25 | CCCCCOc1ccc(-c2cnc(-c3ccc(CN4CC(C(=O)O)C4)cc3)s2)cc1 [Example 40, 1-(4-(5-(4-pentyloxyphenyl)thiazol-2-yl)benzyl)azetidine-3-carboxylic acid] | ≤ 500 nM | – | – | –
26 | O=C(O)C1CN(Cc2ccc(-c3ncc(-c4ccc(OC5CCCC5)cc4)s3)cc2)C1 [Example 41, 1-(4-(5-(4-(cyclopentyloxy)phenyl)thiazol-2-yl)benzyl)azetidine-3-carboxylic acid] | ≤ 100 nM | – | – | –
27 | O=C(O)C1CN(Cc2ccc(-c3ncc(-c4ccc(OC5CCCCC5)cc4)s3)cc2)C1 [Example 43, 1-(4-(5-(4-(cyclohexyloxy)phenyl)thiazol-2-yl)benzyl)azetidine-3-carboxylic acid] | ≤ 100 nM | – | – | –
28 | Cc1cc(OC(C)C)ccc1-c1cnc(-c2ccc(CN3CC(C(=O)O)C3)cc2)s1 [Example 54, 1-(4-(5-(4-isopropoxy-2-methylphenyl)thiazol-2-yl)benzyl)azetidine-3-carboxylic acid] | ≤ 100 nM | – | – | –
